US20230241167A1, “Use of Caveolin-1 Scaffolding Domain Peptides for Treating Disease and Disorders” (MUSC Foundation for Research Development, priority 2020, published 2023)
Square brackets hold non-standard residues; d marks the D form. Ends that are not written are not given here. Peptide text beside a SMILES is read from it.

Tests used:
bleomycin-treated mice [1] = test: Bleomycin-induced lung and skin fibrosis, treatments delivered by pump; type: in vivo; conditions: for bleomycin-induced lung fibrosis (Ashcroft score): treatment by pump over two weeks after one week bleomycin, n=6
Procedure: Experiments were conducted to examine the effect of unmodified CSD subdomains on lung and skin fibrosis. […] Pumps containing bleomycin or saline vehicle were implanted subcutaneously into mice. After one week, the pumps had emptied and were replaced with pumps designed to empty over two weeks containing the indicated treatments (n=6 per group). After these two weeks, the mice were sacrificed.
Skin in the vicinity of the pump outlet was harvested for measurement of the thickness of the dermis and the intradermal fat. ^^^p<0.001 for Saline/Vehicle vs Bleo/Vehicle. ***p<0.001, **p<0.01, *p<0.05 for Bleo/Vehicle vs Bleo/Peptide Treatments.

Ang II-infused mice = test: Angiotensin II-induced congestive heart failure (CHF) model; type: in vivo; conditions: for suppression of AngII-induced fibrosis in the heart (Col I deposition and HSP47 level) / suppression of AngII-induced microvascular leakage in the heart (IgG heavy chain level in the tissue): Western blot; for overall effectiveness of domains in the CHF model (summary of FIGS. 1-7): FIG. 8; for suppression of the effects of AngII on Heart Weight/Body Weight (HW/BW) ratio: young mice (3 months) infused with Ang II two weeks
Procedure: FIG. 1 provides an overview of an experiment using Full-Length CSD, 82-89, 88-95, and 94-101 (SEQ ID NO:1, SEQ ID NO:2, SEQ ID NO:3, and SEQ ID NO:4 respectively).
Young mice (3 months old) infused with Ang II or vehicle for two weeks received daily i.p. injections of CSD, the indicated subdomains or scrambled CSD (0.8 μmol/kg). Mice were evaluated by Echocardiography for changes in posterior wall thickness (pWTh), fractional shortening (FS), cardiac output (CO), ejection fraction (EF), and isovolumic relaxation time (IVRT). Significant changes are shown as ***p<0.001 for Sham+Veh vs AngII+Veh. Significant suppression of AngII-induced changes is shown as ^p<0.05, ^^p<0.01, and ^^^p<0.001 for AngII+Veh vs AngII+CSD or AngII+CSD subdomains. The number of mice used in each treatment are shown in the HW/BW data.
Young mice (3 months old) infused with Ang II or vehicle for two weeks received daily i.p. injections of the indicated subdomains of CSD. The results of a typical experiment for Col I and HSP47 (FIG. 4) and for microvascular leakage (FIG. 5) are shown in Western blots (2 to 3 mice per group). The data are quantified below (n=4). Significant changes are shown as *p<0.05 and **p<0.01 for Sham+Veh vs Ang II+Veh. Significant suppression of Ang II-induced changes by subdomains are shown as ^p<0.05, […], and ^^^p<0.001 for Ang II+Veh vs Ang II+CSD subdomains.
Young mice (3 months old) infused with Ang II or vehicle for two weeks received daily i.p. injections of W82-89. IgG heavy chain (IgGH) leakage and Col I accumulation are shown in Western blots. The actin loading control is present twice because IgGH was analyzed in the supernatant fraction of heart homogenate while Col I is found in the pellet fraction. In the quantitation (n=4), significant changes are shown as **p<0.01 and ***p<0.001 for Sham+Veh vs Ang II+Veh and ^^p<0.01 and ^^^p<0.001 for reversal of AngII-induced changes by W82-89.

VEGFR1 = VEGFR1 (Homo sapiens, UniProt P17948); test: Inhibition of purified kinases; type: biochemical; conditions: purified kinase
PKCα = PKCα (Homo sapiens, UniProt P17252); test: Inhibition of purified kinases; type: biochemical; conditions: purified kinase
TGFβR1 = target: T1, TGFβR1 (Homo sapiens, UniProt P36897); test: Inhibition of purified kinases; type: biochemical; conditions: purified kinase; nintedanib worked at much lower concentrations
T1 sequence (P36897 34-503): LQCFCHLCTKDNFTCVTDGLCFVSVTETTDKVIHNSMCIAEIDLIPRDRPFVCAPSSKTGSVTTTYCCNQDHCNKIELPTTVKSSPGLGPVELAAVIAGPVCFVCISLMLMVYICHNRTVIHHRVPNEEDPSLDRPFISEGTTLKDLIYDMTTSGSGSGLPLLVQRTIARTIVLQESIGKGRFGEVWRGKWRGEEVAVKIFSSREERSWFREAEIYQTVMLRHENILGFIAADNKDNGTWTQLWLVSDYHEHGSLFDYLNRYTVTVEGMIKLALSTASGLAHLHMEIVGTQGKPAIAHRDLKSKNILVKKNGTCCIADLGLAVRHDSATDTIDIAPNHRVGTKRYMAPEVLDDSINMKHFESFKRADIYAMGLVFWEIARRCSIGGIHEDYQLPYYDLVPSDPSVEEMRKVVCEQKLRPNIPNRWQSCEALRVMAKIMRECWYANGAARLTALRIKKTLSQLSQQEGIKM

VEGFR2 = VEGFR2 (Homo sapiens, UniProt P35968); test: Inhibition of purified kinases; type: biochemical; conditions: purified kinase; nintedanib worked at much lower concentrations
Src = Src (Homo sapiens, UniProt P12931); test: Inhibition of purified kinases; type: biochemical; conditions: purified kinase; nintedanib worked at much lower concentrations
Sequence of Src (P12931 whole entry, species assumed): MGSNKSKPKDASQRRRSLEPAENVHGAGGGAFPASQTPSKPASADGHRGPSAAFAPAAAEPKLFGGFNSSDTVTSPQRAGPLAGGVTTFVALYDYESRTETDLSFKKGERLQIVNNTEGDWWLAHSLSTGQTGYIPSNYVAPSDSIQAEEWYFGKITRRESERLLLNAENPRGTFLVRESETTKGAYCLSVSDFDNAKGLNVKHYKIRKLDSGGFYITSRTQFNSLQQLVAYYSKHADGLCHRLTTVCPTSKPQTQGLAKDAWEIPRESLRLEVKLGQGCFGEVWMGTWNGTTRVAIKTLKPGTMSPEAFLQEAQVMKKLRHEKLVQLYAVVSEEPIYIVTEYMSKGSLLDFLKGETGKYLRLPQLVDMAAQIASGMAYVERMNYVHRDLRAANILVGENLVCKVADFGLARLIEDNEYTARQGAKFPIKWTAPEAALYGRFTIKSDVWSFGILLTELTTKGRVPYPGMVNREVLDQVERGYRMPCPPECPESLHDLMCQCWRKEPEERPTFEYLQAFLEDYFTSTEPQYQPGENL

PKCε = target: T2, PKCε (Homo sapiens, UniProt Q02156); test: Inhibition of purified kinases; type: biochemical; conditions: purified kinase
T2 sequence (Q02156 1-737): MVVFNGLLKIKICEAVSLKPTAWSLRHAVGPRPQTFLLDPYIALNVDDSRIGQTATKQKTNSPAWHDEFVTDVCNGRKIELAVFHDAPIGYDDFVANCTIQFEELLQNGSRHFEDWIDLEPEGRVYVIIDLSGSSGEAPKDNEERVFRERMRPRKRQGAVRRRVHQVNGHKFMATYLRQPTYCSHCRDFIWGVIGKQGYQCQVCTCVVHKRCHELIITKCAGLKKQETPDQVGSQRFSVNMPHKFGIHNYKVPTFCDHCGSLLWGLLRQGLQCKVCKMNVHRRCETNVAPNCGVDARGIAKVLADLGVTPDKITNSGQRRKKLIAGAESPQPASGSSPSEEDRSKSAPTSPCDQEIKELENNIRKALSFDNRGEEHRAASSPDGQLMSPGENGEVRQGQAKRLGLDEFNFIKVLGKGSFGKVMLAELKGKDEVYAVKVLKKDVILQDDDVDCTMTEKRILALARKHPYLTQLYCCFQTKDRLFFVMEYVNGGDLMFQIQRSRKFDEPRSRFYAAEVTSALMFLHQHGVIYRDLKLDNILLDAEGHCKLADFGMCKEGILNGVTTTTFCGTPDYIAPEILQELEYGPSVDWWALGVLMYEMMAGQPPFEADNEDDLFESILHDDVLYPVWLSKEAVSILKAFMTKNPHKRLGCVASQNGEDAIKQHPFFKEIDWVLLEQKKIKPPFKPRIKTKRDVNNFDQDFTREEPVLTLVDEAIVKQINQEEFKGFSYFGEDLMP

cMet = cMet (Homo sapiens, UniProt P08581); test: Inhibition of purified kinases; type: biochemical; conditions: purified kinase
Sequence of cMet (P08581 25-1390): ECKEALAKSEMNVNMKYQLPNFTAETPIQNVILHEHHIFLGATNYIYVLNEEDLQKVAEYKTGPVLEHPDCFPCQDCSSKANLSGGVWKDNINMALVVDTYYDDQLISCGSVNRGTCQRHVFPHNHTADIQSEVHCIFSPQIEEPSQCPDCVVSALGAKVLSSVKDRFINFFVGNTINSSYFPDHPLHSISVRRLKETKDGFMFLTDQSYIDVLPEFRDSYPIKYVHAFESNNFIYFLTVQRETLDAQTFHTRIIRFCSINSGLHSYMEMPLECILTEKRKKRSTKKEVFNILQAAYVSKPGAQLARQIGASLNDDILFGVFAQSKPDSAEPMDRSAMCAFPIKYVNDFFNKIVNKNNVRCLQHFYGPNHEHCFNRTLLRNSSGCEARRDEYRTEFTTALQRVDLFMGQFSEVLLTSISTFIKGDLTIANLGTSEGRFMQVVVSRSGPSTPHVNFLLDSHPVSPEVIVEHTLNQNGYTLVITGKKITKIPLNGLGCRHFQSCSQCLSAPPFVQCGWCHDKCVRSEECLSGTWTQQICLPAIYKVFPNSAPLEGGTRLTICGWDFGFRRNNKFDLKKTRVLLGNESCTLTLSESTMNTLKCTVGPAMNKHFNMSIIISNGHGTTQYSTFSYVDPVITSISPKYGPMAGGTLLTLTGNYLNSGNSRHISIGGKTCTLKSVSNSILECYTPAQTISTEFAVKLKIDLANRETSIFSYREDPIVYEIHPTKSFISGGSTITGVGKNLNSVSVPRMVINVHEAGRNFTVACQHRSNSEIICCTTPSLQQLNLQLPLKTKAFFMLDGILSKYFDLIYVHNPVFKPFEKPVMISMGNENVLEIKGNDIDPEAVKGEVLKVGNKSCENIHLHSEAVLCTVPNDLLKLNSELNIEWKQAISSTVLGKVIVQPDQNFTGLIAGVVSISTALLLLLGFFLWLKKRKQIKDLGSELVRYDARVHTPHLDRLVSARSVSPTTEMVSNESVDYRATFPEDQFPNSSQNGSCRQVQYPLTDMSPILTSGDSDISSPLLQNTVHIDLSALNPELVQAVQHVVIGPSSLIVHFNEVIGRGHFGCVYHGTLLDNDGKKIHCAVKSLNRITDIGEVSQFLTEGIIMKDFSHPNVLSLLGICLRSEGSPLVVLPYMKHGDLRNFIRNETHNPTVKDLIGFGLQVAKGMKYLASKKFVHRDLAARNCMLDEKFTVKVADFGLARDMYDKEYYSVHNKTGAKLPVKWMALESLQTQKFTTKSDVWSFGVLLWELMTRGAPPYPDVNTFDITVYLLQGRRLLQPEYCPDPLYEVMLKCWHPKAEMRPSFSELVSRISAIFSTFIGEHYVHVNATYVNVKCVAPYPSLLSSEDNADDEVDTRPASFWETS

VEGFR3 = VEGFR3 (Homo sapiens, UniProt P35916); test: Inhibition of purified kinases; type: biochemical; conditions: purified kinase
Sequence of VEGFR3 (P35916 25-1363, species assumed): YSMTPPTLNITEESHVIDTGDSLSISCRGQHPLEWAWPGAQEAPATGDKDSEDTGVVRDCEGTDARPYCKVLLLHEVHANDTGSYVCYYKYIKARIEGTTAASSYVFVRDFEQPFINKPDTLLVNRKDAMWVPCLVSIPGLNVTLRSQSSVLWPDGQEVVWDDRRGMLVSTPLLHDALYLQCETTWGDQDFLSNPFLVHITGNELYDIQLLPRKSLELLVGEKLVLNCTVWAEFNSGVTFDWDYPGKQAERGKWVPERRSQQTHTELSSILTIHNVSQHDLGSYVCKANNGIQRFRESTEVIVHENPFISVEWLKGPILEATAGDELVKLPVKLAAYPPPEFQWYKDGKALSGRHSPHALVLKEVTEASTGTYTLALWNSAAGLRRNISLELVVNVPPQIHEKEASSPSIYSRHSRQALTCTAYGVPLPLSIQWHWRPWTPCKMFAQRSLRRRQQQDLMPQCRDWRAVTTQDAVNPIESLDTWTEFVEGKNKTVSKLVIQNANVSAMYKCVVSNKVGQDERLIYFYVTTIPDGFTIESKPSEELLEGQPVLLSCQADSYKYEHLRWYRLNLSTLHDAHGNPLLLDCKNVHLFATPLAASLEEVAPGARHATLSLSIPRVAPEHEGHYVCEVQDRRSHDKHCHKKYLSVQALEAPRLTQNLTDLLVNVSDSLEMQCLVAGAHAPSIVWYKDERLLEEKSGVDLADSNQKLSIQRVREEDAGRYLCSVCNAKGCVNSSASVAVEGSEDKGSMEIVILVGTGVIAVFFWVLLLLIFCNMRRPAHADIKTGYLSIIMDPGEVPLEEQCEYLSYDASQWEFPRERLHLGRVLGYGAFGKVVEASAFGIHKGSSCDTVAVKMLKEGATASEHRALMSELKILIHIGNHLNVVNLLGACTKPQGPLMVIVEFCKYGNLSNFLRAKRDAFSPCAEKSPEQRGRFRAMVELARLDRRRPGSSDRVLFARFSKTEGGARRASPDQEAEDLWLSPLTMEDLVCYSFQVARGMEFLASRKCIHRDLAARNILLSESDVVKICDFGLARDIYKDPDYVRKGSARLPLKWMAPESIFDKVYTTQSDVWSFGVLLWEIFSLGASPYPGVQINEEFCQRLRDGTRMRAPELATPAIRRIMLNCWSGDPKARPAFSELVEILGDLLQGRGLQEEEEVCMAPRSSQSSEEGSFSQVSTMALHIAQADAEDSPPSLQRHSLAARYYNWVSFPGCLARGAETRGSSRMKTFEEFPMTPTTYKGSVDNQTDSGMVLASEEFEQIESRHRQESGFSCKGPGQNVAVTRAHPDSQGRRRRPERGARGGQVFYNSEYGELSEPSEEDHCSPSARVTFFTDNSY

PDGFRβ = PDGFRβ (Homo sapiens, UniProt P09619); test: Inhibition of purified kinases; conditions: purified kinase
PDGFRα = PDGFRα (Homo sapiens, UniProt P16234); test: Inhibition of purified kinases; conditions: purified kinase
Sequence of PDGFRα (P16234 24-1089, species assumed): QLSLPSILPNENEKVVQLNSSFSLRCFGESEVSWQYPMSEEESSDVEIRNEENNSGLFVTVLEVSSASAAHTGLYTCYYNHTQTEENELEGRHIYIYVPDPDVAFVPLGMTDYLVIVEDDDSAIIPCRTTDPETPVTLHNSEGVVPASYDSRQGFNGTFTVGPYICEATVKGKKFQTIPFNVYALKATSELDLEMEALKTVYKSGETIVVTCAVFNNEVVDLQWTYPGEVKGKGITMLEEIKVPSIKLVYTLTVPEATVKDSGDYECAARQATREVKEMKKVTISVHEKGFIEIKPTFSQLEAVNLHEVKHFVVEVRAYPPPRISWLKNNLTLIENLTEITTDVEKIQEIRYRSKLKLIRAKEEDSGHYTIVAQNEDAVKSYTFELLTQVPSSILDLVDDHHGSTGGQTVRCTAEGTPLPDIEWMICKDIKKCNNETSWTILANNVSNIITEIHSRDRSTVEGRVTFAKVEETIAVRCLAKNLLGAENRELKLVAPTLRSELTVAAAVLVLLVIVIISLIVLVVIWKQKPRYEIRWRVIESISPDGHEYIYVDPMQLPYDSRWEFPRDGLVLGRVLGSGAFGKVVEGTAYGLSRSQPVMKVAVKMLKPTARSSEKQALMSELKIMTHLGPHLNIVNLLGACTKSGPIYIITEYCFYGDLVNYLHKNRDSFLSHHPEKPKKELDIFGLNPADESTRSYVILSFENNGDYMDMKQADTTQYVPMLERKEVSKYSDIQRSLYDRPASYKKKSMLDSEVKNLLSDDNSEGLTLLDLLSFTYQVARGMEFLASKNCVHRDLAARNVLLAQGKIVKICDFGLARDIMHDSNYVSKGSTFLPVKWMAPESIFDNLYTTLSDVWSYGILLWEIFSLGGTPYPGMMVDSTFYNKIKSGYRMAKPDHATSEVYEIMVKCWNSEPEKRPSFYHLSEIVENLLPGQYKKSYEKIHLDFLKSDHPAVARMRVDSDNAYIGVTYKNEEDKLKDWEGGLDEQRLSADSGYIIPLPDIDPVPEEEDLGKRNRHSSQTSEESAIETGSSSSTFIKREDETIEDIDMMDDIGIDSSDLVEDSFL

bleomycin-treated mice [2] = test: Bleomycin-induced lung and skin fibrosis, daily i.p. WCSD; type: in vivo
Procedure: Pumps containing bleomycin or saline vehicle were implanted subcutaneously into mice. After one week, the pumps had emptied. In addition, mice were injected i.p. daily as indicated, then sacrificed on day 22. All groups contained 4 mice.
Fibrocytes (CD45+/Col I+ cells) were quantified by Flow Cytometry. ECM proteins (Col I, Tenascin C), myofibroblast markers (HSP47, ASMA), and microvascular leakage (IgG Heavy Chain that remained in the tissue after perfusion) were quantified by Western blotting (n=4). Western blot data were quantified densitometrically following normalization to an actin loading control. The value in Saline treated mice was set to 1.0 Arbitrary Unit. ^^p<0.01, ^p<0.05 for Saline/Vehicle vs Bleo/Vehicle; *p<0.05 for Bleo/Vehicle vs Bleo/WCSD.

[3] = young mice infused with Ang II two weeks, daily i.p. injections, echocardiography

82-89: CSD subdomain DGIWKASF-NH2
activity across all readouts of the bleomycin model (lung, skin, monocyte migration) (bleomycin-treated mice [1]; Example 4 summary): most active of the subdomains tested
bleomycin-induced lung fibrosis (Ashcroft score) (bleomycin-treated mice [1]): suppression
suppression of AngII-induced fibrosis in the heart (Col I deposition and HSP47 level) (Ang II-infused mice; daily i.p. injections): significant beneficial effect
suppression of AngII-induced microvascular leakage in the heart (IgG heavy chain level in the tissue) (Ang II-infused mice; daily i.p. injections): almost completely suppressed
overall effectiveness of domains in the CHF model (summary of FIGS. 1-7) (Ang II-infused mice): active
suppression of the effects of AngII on Heart Weight/Body Weight (HW/BW) ratio (Ang II-infused mice; daily i.p. injections): essentially equally effective as 88-95
suppression of the effects of AngII on Ejection Fraction (EF), Fractional Shortening (FS), Isovolumic Relaxation Time (IVRT) (Ang II-infused mice; [3]): significant beneficial effect

94-101: CSD subdomain VTKYWFYR-NH2
bleomycin-induced lung fibrosis (Ashcroft score) (bleomycin-treated mice [1]): suppression

COC(=O)c1ccc2c(c1)NC(=O)/C2=C(\Nc1ccc(N(C)C(=O)CN2CCN(C)CC2)cc1)c1ccccc1 [nintedanib]
inhibition of VEGFR1 (VEGFR1): inhibits
inhibition of PKCα (PKCα): has no effect
inhibition of TGFβR1 (TGFβR1): inhibit
inhibition of VEGFR2 (VEGFR2): inhibit
inhibition of Src (Src): inhibit
inhibition of PKCε (PKCε): has no effect
inhibition of cMet (cMet): has no effect
inhibition of VEGFR3 (VEGFR3): inhibits
inhibition of PDGFRβ (PDGFRβ): inhibits
inhibition of PDGFRα (PDGFRα): inhibits

88-95: CSD subdomain SFTTFTVT-NH2
bleomycin-induced lung fibrosis (Ashcroft score) (bleomycin-treated mice [1]): suppression
suppression of AngII-induced fibrosis in the heart (Col I deposition and HSP47 level) (Ang II-infused mice; daily i.p. injections): most effective CSD subdomain
suppression of AngII-induced microvascular leakage in the heart (IgG heavy chain level in the tissue) (Ang II-infused mice; daily i.p. injections): almost completely suppressed
overall effectiveness of domains in the CHF model (summary of FIGS. 1-7) (Ang II-infused mice): most effective Dimethyl sulfoxide (DMSO)-solubilized domain tested
suppression of the effects of AngII on Heart Weight/Body Weight (HW/BW) ratio (Ang II-infused mice; daily i.p. injections): most effective CSD subdomain
suppression of the effects of AngII on Ejection Fraction (EF), Fractional Shortening (FS), Isovolumic Relaxation Time (IVRT) (Ang II-infused mice; [3]): most effective CSD subdomain
suppression of the effects of AngII on Left Ventricle (LV) Mass and Posterior Wall Thickness (pWTh) (Ang II-infused mice; [3]): most effective CSD subdomain

CC[C@H](C)[C@H](NC(=O)CNC(=O)[C@H](CC(=O)O)NC(=O)[C@@H](CCCCN)NC(=O)[C@@H](CCCCN)NC(C)=O)C(=O)N[C@@H](Cc1c[nH]c2ccccc12)C(=O)N[C@@H](CCCCN)C(=O)N[C@@H](C)C(=O)N[C@@H](CO)C(=O)N[C@@H](Cc1ccccc1)C(=O)N[C@H](C(=O)N[C@H](C(=O)N[C@@H](Cc1ccccc1)C(=O)N[C@H](C(=O)N[C@H](C(=O)N[C@H](C(=O)N[C@@H](CCCCN)C(=O)N[C@@H](Cc1ccc(O)cc1)C(=O)N[C@@H](Cc1c[nH]c2ccccc12)C(=O)N[C@@H](Cc1ccccc1)C(=O)N[C@@H](Cc1ccc(O)cc1)C(=O)N[C@@H](CCCNC(=N)N)C(=O)N[C@H](CCCCN)C(=O)N[C@H](CCCCN)C(N)=O)[C@@H](C)O)C(C)C)[C@@H](C)O)[C@@H](C)O)[C@@H](C)O [WCSD] (Ac-[dK][dK]DGIWKASFTTFTVTKYWFYR[dK][dK]-NH2)
fibrocytes (CD45+/Col I+ cells) in lung (bleomycin-treated mice [2]; Flow Cytometry): almost completely suppressed by WCSD down to the levels in control, saline-treated mice
bleomycin-induced loss of the transdermal adipose layer in the skin (bleomycin-treated mice [2]; WCSD treatment beginning on day 8): suppresses the almost complete loss of the transdermal adipose layer
ECM proteins (Col I, Tenascin C) in lung (bleomycin-treated mice [2]; Western blotting, n=4): almost completely suppressed by WCSD down to the levels in control, saline-treated mice
microvascular leakage (IgG Heavy Chain remaining in the tissue after perfusion) in lung (bleomycin-treated mice [2]; Western blotting, n=4): almost completely suppressed by WCSD down to the levels in control, saline-treated mice
myofibroblast markers (HSP47, ASMA) in lung (bleomycin-treated mice [2]; Western blotting, n=4): almost completely suppressed by WCSD down to the levels in control, saline-treated mice
survival (bleomycin-treated mice [2]; bleomycin pump, daily i.p. WCSD): outstanding beneficial effect on survival
lung fibrosis and inflammatory cell infiltration (histology) (bleomycin-treated mice [2]; bleomycin, treatment also delayed until day 8): suppressed by WCSD even when treatment is delayed until day 8
